The text below walks through data of US7829728B2, “Diarymethyl and related compounds” (Theravance, Inc., priority 2003, dated 2010).

For assay [1], the target named is T1, M3 muscarinic receptor (hM3) (Homo sapiens, UniProt P20309).
T1 construct: expressed in transfected cells; host or cells: CHO cells, membranes
Briefly: Radioligand binding assay for muscarinic receptors (Assay Test Procedure B). The following applies: [3H]-NMS displacement, CHO cell membranes expressing hM3. Here is the method: CHO cell lines stably expressing cloned human hM1, hM2, hM3 and hM4 muscarinic receptor subtypes, respectively, were grown to near confluency in HAM's F-12 media supplemented with 10% FBS and 250 μg/mL Geneticin. The cells were grown in a 5% CO2, 37° C. incubator and lifted with 2 mM EDTA in dPBS. Cells were collected by 5 minute centrifugation at 650×g, and cell pellets were either stored frozen at −80° C. or membranes were prepared immediately for use. For membrane preparation, cell pellets were resuspended in lysis buffer and homogenized with a Polytron PT-2100 tissue disrupter (Kinematica AG; 20 seconds×2 bursts). Crude membranes were centrifuged at 40,000×g for 15 minutes at 4° C. […] The protein concentration of the membrane suspension was determined by the method described in Lowry et al., 1951, Journal of Biochemistry, 193, 265. […]
Radioligand binding assays for cloned human muscarinic receptors were performed in 96-well microtiter plates in a total assay volume of 100 μL. […] Filter plates were rinsed three times with wash buffer (10 mM HEPES) to remove unbound radioactivity. […] The plates were then counted in a PerkinElmer Topcount liquid scintillation counter (PerkinElmer Inc., Wellesley, Mass.). Binding data were analyzed by nonlinear regression analysis with the GraphPad Prism Software package (GraphPad Software, Inc., San Diego, Calif.) using the one-site competition model. […]

Assay [2] concerns the target human β2 adrenergic receptor (Homo sapiens, UniProt P07550). Nature of the assay: Whole-cell cAMP Flashplate assay in CHO cell lines heterologously expressing human β2 adrenergic receptor (Assay Test Procedure C). The format is cell-based. Also on record: expressed in transfected cells; host or cells: CHO cells, membranes. As for the experimental part: cAMP assays were performed in a radioimmunoassay format using the Flashplate Adenylyl Cyclase Activation Assay System with [^125I]-cAMP (NEN SMP004, PerkinElmer Life Sciences Inc., Boston, Mass.), according to the manufacturers instructions. For the determination of β receptor agonist potency (EC50), CHO-K1 cell lines stably expressing cloned human β1, β2 or β3 adrenergic receptors were grown to near confluency in HAM's F-12 media supplemented with 10% FBS and Geneticin (250 μg/mL). Cells were rinsed with PBS and detached in dPBS (Dulbecco's Phosphate Buffered Saline, without CaCl2 and MgCl2) containing 2 mM EDTA or Trypsin-EDTA solution (0.05% trypsin/0.53 mM EDTA). After counting cells in Coulter cell counter, cells were pelleted by centrifugation at 1,000 rpm and re-suspended in stimulation buffer containing IBMX (PerkinElmer Kit) pre-warmed to room temperature to a concentration of 1.6×10^6 to 2.8×10^6 cells/mL. About 60,000 to 80,000 cells per well were used in this assay. […] The amount of cAMP produced (pmol/well) was calculated based on the counts observed for the samples and cAMP standards as described in the manufacturer's user manual. Data were analyzed by nonlinear regression analysis with the GraphPad Prism Software package (GraphPad Software, Inc., San Diego, Calif.) with the sigmoidal equation. […]

Sequence of human β2 adrenergic receptor (P07550 whole entry): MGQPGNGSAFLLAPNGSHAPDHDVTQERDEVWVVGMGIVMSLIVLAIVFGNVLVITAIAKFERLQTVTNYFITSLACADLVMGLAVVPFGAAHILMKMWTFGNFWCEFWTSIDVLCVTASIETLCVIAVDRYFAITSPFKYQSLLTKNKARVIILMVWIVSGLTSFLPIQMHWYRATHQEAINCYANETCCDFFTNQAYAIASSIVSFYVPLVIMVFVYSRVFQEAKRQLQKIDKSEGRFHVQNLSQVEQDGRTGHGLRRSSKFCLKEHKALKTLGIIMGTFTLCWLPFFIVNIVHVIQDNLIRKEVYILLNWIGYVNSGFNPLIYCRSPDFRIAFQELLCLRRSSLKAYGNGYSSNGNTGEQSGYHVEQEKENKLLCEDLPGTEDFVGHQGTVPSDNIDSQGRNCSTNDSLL
T1 sequence (P20309 whole entry): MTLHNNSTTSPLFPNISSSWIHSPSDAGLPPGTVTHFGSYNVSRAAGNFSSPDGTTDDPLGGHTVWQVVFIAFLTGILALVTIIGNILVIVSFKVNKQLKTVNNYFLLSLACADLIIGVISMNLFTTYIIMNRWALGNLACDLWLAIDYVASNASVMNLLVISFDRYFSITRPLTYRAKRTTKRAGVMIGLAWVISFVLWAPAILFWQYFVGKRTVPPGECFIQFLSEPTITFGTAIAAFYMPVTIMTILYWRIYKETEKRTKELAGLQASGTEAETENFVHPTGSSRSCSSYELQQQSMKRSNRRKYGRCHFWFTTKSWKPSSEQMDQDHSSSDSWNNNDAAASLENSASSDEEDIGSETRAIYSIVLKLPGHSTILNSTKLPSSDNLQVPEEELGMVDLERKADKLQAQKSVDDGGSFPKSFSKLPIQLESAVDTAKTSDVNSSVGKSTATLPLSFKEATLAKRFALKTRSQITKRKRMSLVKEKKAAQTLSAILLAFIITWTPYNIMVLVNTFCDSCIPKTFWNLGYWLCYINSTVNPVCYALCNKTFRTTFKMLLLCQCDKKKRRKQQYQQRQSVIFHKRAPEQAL

What is called Ki is the dissociation constant of the complex between target and ligand, obtained from inhibition or displacement. A higher Ki goes with lower affinity. Broadly, the EC50 is the concentration at which the effect is half-maximal. Read a high EC50 as weaker potency. In turn, `NC(=O)C(c1ccccc1)(c1ccccc1)[C@@H]1CCN(CCCCCCCCCNCC(O)c2ccc(O)c3[nH]c(=O)ccc23)C1` (mixture of isomers) [Example 1, 2-((S)-1-{9-[2-Hydroxy-2-(8-hydroxy-2-oxo-1,2-dihydroquinolin-5-yl)ethylamino]-nonyl}pyrrolidin-3-yl)-2,2-diphenylacetamide] came in with a Ki in assay [1] of less than 50 nM. The compound also showed an EC50 in assay [2] (cAMP, CHO-K1 cells expressing cloned human β2 receptor) of less than 10 nM. Moreover, in assay [2] (receptor subtype selectivity, functional cAMP, human β1 versus β2), the “ratio of EC50(β1)/EC50(β2)” value is “greater than 10”.
